How the values were obtained:
Test in all cases: radiometric filter-binding kinase assay
[1] = system: AKT2 (human), P31751 [S474D]
BTK (human) = BTK (human) (UniProt Q06187)
CDK2 CCNA2 (human) = CDK2 CCNA2 (human) (UniProt P20248+P24941)
CHEK2 (human) = CHEK2 (human) (UniProt O96017)
CSK (human) = CSK (human) (UniProt P41240)
CSNK1D (human) = CSNK1D (human) (UniProt P48730)
EPHA4 (human) = EPHA4 (human) (UniProt P54764)
EPHB1 (human) = EPHB1 (human) (UniProt P54762)
EPHB4 (human) = EPHB4 (human) (UniProt P54760)
FLT1 (human) = FLT1 (human) (UniProt P17948)
IKBKB (human) = IKBKB (human) (UniProt O14920)
IKBKE (human) = IKBKE (human) (UniProt Q14164)
INSRR (human) = INSRR (human) (UniProt P14616)
INSRR (human), sequence (P14616 whole entry, looked up): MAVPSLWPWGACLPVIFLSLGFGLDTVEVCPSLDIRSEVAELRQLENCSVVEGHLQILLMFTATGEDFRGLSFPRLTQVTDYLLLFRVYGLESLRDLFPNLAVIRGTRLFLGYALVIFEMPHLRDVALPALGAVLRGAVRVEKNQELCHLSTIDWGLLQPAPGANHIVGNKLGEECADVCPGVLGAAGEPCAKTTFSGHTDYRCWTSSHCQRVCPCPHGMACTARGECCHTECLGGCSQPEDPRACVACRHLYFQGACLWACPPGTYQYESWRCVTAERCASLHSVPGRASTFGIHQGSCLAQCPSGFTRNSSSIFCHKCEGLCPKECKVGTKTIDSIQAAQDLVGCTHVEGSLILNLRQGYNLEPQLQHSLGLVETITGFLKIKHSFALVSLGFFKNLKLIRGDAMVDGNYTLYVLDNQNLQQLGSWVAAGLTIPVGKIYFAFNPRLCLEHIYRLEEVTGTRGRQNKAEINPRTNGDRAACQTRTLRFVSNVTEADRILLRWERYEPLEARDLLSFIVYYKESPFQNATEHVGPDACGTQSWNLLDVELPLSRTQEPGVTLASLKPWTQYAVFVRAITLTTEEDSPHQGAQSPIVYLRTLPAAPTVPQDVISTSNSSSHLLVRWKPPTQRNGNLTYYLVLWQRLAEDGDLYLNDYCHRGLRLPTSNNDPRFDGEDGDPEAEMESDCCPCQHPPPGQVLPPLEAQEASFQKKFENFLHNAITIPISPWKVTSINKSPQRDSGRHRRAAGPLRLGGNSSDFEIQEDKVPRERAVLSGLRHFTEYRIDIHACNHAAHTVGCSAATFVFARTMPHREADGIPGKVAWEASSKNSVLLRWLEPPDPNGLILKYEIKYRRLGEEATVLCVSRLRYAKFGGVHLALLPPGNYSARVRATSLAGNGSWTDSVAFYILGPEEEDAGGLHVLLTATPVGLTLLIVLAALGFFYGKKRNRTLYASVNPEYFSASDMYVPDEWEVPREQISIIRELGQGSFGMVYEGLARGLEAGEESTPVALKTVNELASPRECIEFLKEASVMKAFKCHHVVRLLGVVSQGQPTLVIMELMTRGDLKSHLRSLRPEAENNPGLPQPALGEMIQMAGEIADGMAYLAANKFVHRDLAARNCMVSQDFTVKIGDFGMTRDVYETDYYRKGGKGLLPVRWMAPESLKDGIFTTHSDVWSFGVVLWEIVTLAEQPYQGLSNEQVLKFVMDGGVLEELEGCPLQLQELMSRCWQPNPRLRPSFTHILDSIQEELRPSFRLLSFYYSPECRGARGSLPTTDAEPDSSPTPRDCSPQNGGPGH

MAP2K1 (human) = MAP2K1 (human) (UniProt Q02750)
MAPK1 (human) = MAPK1 (human) (UniProt P28482)
MAPK14 (human) = MAPK14 (human) (UniProt Q16539)
MAPK15 (human) = MAPK15 (human) (UniProt Q8TD08)
MAPK3 (human) = MAPK3 (human) (UniProt P27361)
MAPKAPK3 (human) = MAPKAPK3 (human) (UniProt Q16644)
MKNK2 (human) = MKNK2 (human) (UniProt Q9HBH9)
NEK2 (human) = NEK2 (human) (UniProt P51955)
NEK2 (human), sequence (P51955 whole entry, looked up): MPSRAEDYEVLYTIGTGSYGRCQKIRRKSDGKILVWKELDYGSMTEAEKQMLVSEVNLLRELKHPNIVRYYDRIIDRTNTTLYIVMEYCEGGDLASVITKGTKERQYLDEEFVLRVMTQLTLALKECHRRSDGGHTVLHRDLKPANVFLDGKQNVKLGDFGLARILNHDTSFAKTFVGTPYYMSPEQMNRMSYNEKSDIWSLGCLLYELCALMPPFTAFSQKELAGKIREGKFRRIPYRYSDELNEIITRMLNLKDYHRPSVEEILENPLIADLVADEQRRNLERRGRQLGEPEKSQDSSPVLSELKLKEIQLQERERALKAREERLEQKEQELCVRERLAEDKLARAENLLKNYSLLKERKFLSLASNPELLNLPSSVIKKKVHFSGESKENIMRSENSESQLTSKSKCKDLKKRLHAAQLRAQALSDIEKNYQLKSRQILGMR

NEK6 (human) = NEK6 (human) (UniProt Q9HC98)
NEK6 (human), sequence (Q9HC98 whole entry, looked up): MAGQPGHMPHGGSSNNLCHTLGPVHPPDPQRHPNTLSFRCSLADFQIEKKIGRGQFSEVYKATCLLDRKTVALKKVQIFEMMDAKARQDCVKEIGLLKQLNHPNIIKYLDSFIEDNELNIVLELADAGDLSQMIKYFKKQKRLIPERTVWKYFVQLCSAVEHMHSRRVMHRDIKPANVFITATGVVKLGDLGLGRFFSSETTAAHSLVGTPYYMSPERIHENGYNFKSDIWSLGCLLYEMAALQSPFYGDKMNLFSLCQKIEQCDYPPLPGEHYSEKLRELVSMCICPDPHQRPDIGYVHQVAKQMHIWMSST

PAK7 (human) = PAK7 (human) (UniProt Q9P286)
PIM2 (human) = PIM2 (human) (UniProt Q9P1W9)
PIM2 (human), sequence (Q9P1W9 whole entry, looked up): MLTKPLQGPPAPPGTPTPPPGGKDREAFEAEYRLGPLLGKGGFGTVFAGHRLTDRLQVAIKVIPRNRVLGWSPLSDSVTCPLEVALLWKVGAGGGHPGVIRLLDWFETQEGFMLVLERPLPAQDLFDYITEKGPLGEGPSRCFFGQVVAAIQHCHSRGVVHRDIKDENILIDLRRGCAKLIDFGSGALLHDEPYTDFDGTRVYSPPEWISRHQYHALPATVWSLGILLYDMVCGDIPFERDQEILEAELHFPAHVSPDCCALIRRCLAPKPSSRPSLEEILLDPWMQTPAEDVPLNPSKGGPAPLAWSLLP

PLK1 (human) = PLK1 (human) (UniProt P53350)
PRKAA1 or PRKAA2 (rat) = details: accession and sequence are those of the human protein
PRKACA (human) = PRKACA (human) (UniProt P17612)
RIPK2 (human) = RIPK2 (human) (UniProt O43353)
RIPK2 (human), sequence (O43353 whole entry, looked up): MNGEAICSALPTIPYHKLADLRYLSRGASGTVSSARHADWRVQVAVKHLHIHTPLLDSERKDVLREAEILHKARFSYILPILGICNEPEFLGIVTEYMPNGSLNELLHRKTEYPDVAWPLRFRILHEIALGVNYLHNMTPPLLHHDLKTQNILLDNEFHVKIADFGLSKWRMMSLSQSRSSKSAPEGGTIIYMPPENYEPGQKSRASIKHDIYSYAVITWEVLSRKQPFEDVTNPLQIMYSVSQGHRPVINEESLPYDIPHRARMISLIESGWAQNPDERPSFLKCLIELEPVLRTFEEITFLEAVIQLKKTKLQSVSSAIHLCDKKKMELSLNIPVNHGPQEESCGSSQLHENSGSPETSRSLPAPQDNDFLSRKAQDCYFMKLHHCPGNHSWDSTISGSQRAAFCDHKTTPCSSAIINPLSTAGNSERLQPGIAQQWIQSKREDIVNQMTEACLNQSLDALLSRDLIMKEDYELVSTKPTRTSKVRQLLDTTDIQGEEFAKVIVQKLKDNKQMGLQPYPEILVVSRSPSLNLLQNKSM

RPS6KA1 KD1 KD2 (human) = RPS6KA1 KD1 KD2 (human) (UniProt Q15418); details: compound 1.0 µM
RPS6KA3 KD1 KD2 (human) = RPS6KA3 KD1 KD2 (human) (UniProt P51812)
RPS6KA3 KD1 KD2 (human), sequence (P51812 whole entry, looked up): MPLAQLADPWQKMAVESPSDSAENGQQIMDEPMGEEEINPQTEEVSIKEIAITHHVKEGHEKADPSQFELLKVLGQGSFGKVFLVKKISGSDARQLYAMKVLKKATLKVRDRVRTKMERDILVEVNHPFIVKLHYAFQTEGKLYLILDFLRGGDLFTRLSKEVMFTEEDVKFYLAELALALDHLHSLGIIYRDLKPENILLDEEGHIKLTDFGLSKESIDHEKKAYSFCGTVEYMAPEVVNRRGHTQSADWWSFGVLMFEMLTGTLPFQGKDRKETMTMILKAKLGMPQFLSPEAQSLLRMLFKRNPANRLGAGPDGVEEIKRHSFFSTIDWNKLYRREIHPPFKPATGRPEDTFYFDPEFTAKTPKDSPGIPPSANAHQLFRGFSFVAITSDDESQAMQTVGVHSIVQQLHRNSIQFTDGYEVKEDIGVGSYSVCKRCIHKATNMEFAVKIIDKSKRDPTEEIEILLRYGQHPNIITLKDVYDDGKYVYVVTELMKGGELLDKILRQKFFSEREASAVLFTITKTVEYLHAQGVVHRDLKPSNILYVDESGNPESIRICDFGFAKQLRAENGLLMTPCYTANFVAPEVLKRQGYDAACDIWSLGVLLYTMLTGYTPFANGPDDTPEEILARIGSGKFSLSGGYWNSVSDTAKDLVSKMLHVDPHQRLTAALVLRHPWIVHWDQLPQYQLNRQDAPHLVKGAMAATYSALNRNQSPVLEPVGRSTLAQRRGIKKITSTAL

RPS6KA5 KD1 KD2 (human) = RPS6KA5 KD1 KD2 (human) (UniProt O75582)
[2] = system: RPS6KB1 (human), P23443 [T412E]
RPS6KB1 (human), P23443 [T412E], sequence (P23443 whole entry T412E, looked up): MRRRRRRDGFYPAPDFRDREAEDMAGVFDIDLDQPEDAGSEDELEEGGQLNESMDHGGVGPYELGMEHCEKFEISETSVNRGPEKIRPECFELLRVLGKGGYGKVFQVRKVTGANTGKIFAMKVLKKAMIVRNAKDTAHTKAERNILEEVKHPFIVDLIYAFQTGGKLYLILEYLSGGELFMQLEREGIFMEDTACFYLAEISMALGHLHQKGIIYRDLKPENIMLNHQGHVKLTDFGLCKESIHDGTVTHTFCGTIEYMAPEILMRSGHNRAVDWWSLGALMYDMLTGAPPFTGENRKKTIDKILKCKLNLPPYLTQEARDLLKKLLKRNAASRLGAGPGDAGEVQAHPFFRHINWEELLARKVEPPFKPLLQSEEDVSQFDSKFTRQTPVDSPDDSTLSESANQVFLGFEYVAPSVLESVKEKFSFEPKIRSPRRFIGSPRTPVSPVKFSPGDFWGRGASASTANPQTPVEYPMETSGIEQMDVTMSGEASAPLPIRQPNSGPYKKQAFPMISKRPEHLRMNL

SRC (human) = SRC (human) (UniProt P12931)
SYK (human) = SYK (human) (UniProt P43405)
TTK (human) = TTK (human) (UniProt P33981)
TTK (human), sequence (P33981 whole entry, looked up): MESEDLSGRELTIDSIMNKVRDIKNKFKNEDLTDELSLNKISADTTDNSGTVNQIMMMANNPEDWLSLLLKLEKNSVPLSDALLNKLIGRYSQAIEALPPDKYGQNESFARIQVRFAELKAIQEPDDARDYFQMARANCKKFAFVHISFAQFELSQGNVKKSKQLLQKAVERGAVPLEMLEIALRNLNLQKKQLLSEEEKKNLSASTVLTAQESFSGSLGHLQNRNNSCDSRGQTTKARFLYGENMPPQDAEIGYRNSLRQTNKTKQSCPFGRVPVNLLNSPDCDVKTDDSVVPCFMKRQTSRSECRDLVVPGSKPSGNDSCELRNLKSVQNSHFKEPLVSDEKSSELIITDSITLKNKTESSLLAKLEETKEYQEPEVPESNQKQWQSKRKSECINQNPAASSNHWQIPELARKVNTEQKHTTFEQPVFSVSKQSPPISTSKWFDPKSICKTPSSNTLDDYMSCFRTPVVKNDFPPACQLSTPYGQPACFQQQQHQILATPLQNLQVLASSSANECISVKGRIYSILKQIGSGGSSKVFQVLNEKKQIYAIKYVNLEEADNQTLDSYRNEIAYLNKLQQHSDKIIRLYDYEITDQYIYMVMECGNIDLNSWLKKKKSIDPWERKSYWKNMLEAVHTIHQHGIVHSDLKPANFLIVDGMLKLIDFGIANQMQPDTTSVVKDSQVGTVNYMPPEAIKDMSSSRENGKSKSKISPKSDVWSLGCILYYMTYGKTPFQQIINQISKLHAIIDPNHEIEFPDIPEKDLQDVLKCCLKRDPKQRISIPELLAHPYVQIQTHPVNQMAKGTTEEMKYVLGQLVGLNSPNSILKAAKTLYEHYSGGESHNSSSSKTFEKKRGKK

## COc1ccc(-n2ncc3cnc(Nc4cc(OC)c(OC)c(OCCCN5CCN(C)CC5)c4)nc32)cc1
[1]; compound 0.1 µM
  residual activity: 88%
[1]; compound 1.0 µM
  residual activity: 77%
BTK (human); compound 0.1 µM
  residual activity: 22%
BTK (human); compound 1.0 µM
  residual activity: 14%
CDK2 CCNA2 (human); compound 0.1 µM
  residual activity: 34%
CDK2 CCNA2 (human); compound 1.0 µM
  residual activity: 7%
CHEK2 (human); compound 0.1 µM
  residual activity: 48%
CHEK2 (human); compound 1.0 µM
  residual activity: 12%
CSK (human); compound 0.1 µM
  residual activity: 65%
CSK (human); compound 1.0 µM
  residual activity: 38%
CSNK1D (human); compound 0.1 µM
  residual activity: 95%
CSNK1D (human); compound 1.0 µM
  residual activity: 69%
EPHA4 (human); compound 0.1 µM
  residual activity: 14%
EPHA4 (human); compound 1.0 µM
  residual activity: 5%
EPHB1 (human); compound 0.1 µM
  residual activity: 8%
EPHB1 (human); compound 1.0 µM
  residual activity: 3%
EPHB4 (human); compound 0.1 µM
  residual activity: 69%
EPHB4 (human); compound 1.0 µM
  residual activity: 3%
FLT1 (human); compound 0.1 µM
  residual activity: 5%
FLT1 (human); compound 1.0 µM
  residual activity: 2%
IKBKB (human); compound 0.1 µM
  residual activity: 86%
IKBKB (human); compound 1.0 µM
  residual activity: 55%
IKBKE (human); compound 0.1 µM
  residual activity: 28%
IKBKE (human); compound 1.0 µM
  residual activity: 18%
INSRR (human); compound 0.1 µM
  residual activity: 78%
INSRR (human); compound 1.0 µM
  residual activity: 35%
MAP2K1 (human); compound 0.1 µM
  residual activity: 40%
MAP2K1 (human); compound 1.0 µM
  residual activity: 13%
MAPK1 (human); compound 0.1 µM
  residual activity: 84%
MAPK1 (human); compound 1.0 µM
  residual activity: 57%
MAPK14 (human); compound 0.1 µM
  residual activity: 98%
MAPK14 (human); compound 1.0 µM
  residual activity: 85%
MAPK15 (human); compound 0.1 µM
  residual activity: 22%
MAPK15 (human); compound 1.0 µM
  residual activity: 4%
MAPK3 (human); compound 0.1 µM
  residual activity: 111%
MAPK3 (human); compound 1.0 µM
  residual activity: 82%
MAPKAPK3 (human); compound 0.1 µM
  residual activity: 97%
MAPKAPK3 (human); compound 1.0 µM
  residual activity: 81%
MKNK2 (human); compound 0.1 µM
  residual activity: 67%
MKNK2 (human); compound 1.0 µM
  residual activity: 17%
NEK2 (human); compound 0.1 µM
  residual activity: 22%
NEK2 (human); compound 1.0 µM
  residual activity: 3%
NEK6 (human); compound 0.1 µM
  residual activity: 89%
NEK6 (human); compound 1.0 µM
  residual activity: 59%
PAK7 (human); compound 0.1 µM
  residual activity: 53%
PAK7 (human); compound 1.0 µM
  residual activity: 18%
PIM2 (human); compound 0.1 µM
  residual activity: 108%
PIM2 (human); compound 1.0 µM
  residual activity: 106%
PLK1 (human); compound 0.1 µM
  residual activity: 90%
PLK1 (human); compound 1.0 µM
  residual activity: 91%
PRKAA1 or PRKAA2 (rat); compound 0.1 µM
  residual activity: 25%
PRKAA1 or PRKAA2 (rat); compound 1.0 µM
  residual activity: 22%
PRKACA (human); compound 0.1 µM
  residual activity: 78%
PRKACA (human); compound 1.0 µM
  residual activity: 26%
RIPK2 (human); compound 0.1 µM
  residual activity: 28%
RIPK2 (human); compound 1.0 µM
  residual activity: 14%
RPS6KA1 KD1 KD2 (human)
  residual activity: 7%
RPS6KA3 KD1 KD2 (human); compound 0.1 µM
  residual activity: 38%
RPS6KA3 KD1 KD2 (human); compound 1.0 µM
  residual activity: 9%
RPS6KA5 KD1 KD2 (human); compound 0.1 µM
  residual activity: 76%
RPS6KA5 KD1 KD2 (human); compound 1.0 µM
  residual activity: 34%
[2]; compound 0.1 µM
  residual activity: 70%
[2]; compound 1.0 µM
  residual activity: 28%
SRC (human); compound 0.1 µM
  residual activity: 7%
SRC (human); compound 1.0 µM
  residual activity: 3%
SYK (human); compound 0.1 µM
  residual activity: 58%
SYK (human); compound 1.0 µM
  residual activity: 13%
TTK (human); compound 0.1 µM
  residual activity: 81%
TTK (human); compound 1.0 µM
  residual activity: 64%

Source: the kinase profiling compilation of Christmann-Franck et al. (2016)
